Where no end group is shown, it is not given here.
Assays:
[1] = system: peripheral blood mononuclear cells (PBMC); experiment: ELISPOT of IFN-γ producing T cells in PBMC, Example 1; assay type: cell-based, human; settings: PBMC receiving the peptide in comparison with PBMC not receiving the peptide
[2] = system: lung cancer patient two with metastasis at stage IV; experiment: Change in blood tumor marker levels in the lung cancer patient two, Example 2; assay type: in vivo, human
Procedure: The present example illustrates the case of the lung cancer patient two with metastasis at stage IV, who was administered with the WT1 peptide vaccine. In a similar manner to Example 1, a solution of wild type WT1 peptide (SEQ ID NO: 2) was mixed with Montanide ISA (registered trademark) 51 to provide a water-in-oil emulsion each just before the administration wherein the emulsion was injected intradermally at the upper arm of the patient totally six times, i.d. on day 0, 14, 28, 42, 56, and 71 wherein day 0 represents the day when the first administration was conducted.
The levels of tumor markers, CEA and SLX, were determined in a similar manner to Example 1, and the level of CYFRA (cytokeratin 19 fragments) was determined using Elecsys CYFRA produced by Roche.

[3] = system: cancer patient two suffered from acute myeloblastic leukemia (AML-M1) transformed from Myelodysplastic Syndromes (MDS); experiment: Leukocyte number and bone marrow leukemic blasts in the leukemia patient, Example 3; assay type: in vivo, human
Procedure: The present example illustrates the case of the cancer patient two suffered from acute myeloblastic leukemia (AML-M1) transformed from Myelodysplastic Syndromes (MDS), who was administered with the WT1 peptide vaccine. The WT1 peptide used in this example was altered type WT1 peptide: Cys Tyr Thr Trp Asn Gln Met Asn Leu (SEQ ID NO: 3) synthesized by MPS Inc. (U.S.) with GMP grade. In a similar manner to Example 1, the peptide was mixed with MONTANIDE ISA (registered trademark) 51 to provide a water-in-oil emulsion, and the emulsion was injected intradermally at the upper arm of the patient. Leukemic blasts occupied 50% of the bone marrow two days before the administration, while the total number of leukocytes was 1500/μl on the day before the administration. Two days after the administration, the total number of leukocytes was decreased to 700/μl, and the leukemic blasts of the bone marrow reduced to 27%. When a hemopoietic factor, G-CSF, was administered to the patient in the light of the decreased total number of leukocytes, the total number recovered to 2150/μl, and the leukemic blasts of the bone marrow was 11% seven days after the administration.

[4] = system: CTLs reactive to the wild type WT1 peptide-presenting HLA-A*2402 molecule; experiment: HLA tetramer method, CTLs reactive to wild type WT1 peptide-presenting HLA-A*2402, Example 3; assay type: in vivo, human; settings: two days after the administration; 1.1% three days before the administration
Procedure: Subsequently, the number of cytotoxic T cells (CTLs) reactive to the wild type WT1 peptide-presenting HLA-A*2402 molecule in the same patient was determined by an HLA tetramer method. The HLA-A*2402 tetramer was prepared using the wild type WT1 peptide according to the method described in Int. J. Cancer 100, 565-570 (2002). On a flow cytometer, FACS, the cells were stained with the two colors of PE-labeled HLA-A*2402 tetramer and FITC-labeled CD8 antibody, and the double-positive cells were assigned to CTLs recognizing the wild type WT1 peptide, i.e., CTLs reactive to WT1-positive cancer cells. CTL frequency three days before the administration of the peptide was 1.1%, whereas the frequency was increased to 8.8% two days after the administration.

## CMTWNQMNL [wild type WT1 peptide]
[1]
  T cells producing IFN-γ in response to specifically the peptide (ELISPOT): found to be more
[2]; on and after the 2nd administration, before administration 50 U/ml, upper limit of normal 38 U/ml, FIG. 2
  level of SLX in blood: decreased to reach the normal level
[2]; on and after the 2nd administration, before administration higher than upper limit of normal 5 ng/ml, FIG. 2
  level of CEA in blood: decreased
[2]; on and after the 3rd administration, below the upper limit of normal level, FIG. 2
  level of CYFRA in blood: < 2 ng/mL
[2]; water-in-oil emulsion, overall conclusion of Example 2
  development of the tumor: suppressed the development of the tumor

## CYTWNQMNL [altered type WT1 peptide]
[3]; seven days after the administration, G-CSF also given
  leukemic blasts of the bone marrow: 11%
[3]; two days after the administration, 50% two days before the administration
  leukemic blasts of the bone marrow: 27%
[3]; water-in-oil emulsion, overall conclusion of Example 3
  conditions of leukemia: improved the conditions of leukemia with decreased ratio of the leukemic blasts in the bone marrow
[4]
  CTL frequency (HLA-A*2402 tetramer and CD8 double-positive cells): 8.8%

From patent publication US7342092B2, “Cancer antigen peptide formulations” (International Institute of Cancer Immunology, Inc., priority 2002, dated 2008)
